Experimental data published in PMC4174996 (Journal of Medicinal Chemistry, 2014).

Assay: Serum stability test
Format: in vitro ADME
Conditions: human, diluted human serum (25%)

Question: With `CC[C@H](C)[C@H](NC(=O)[C@@H](NC(=O)[C@@H]1CCCN1C(=O)[C@H](Cc1c[nH]cn1)NC(=O)[C@@H]1CCCN1C(=O)CN)C(C)C)C(=O)N[C@H](C(=O)N[C@H](C(=O)N[C@H](C(=O)NCC(=O)N1CCC[C@H]1C(=O)N[C@@H](Cc1c[nH]cn1)C(=O)N[C@@H](CCC(=O)O)C(=O)N[C@@H](CCC(=O)O)C(N)=O)[C@@H](C)O)[C@@H](C)CC)C(C)C` [VIVIT] as the compound, how does the half-life at 50 µM read?
Answer: ~1 h
